According to PMC5522529, “Mechanisms of Paradoxical Activation of AMPK by the Kinase Inhibitors SU6656 and Sorafenib” (Cell Chemical Biology, 2017):

Experiments:
AMPK-α1 AT mutant = target: T1, AMPK-α1 AT mutant (Homo sapiens, UniProt Q13131, A167T); assay: AMPK activity of FLAG-tagged AMPK-α1 AT mutant expressed in HEK293 cells; assay type: cell-based; conditions: AT mutant FLAG-α1, 1 hr
T1 construct: we expressed FLAG-tagged full-length AMPK-α1 either as the WT or the AT mutant; expressed in transfected cells; host or cells: HEK293 (transient transfection)
T1 sequence (Q13131 whole entry A167T): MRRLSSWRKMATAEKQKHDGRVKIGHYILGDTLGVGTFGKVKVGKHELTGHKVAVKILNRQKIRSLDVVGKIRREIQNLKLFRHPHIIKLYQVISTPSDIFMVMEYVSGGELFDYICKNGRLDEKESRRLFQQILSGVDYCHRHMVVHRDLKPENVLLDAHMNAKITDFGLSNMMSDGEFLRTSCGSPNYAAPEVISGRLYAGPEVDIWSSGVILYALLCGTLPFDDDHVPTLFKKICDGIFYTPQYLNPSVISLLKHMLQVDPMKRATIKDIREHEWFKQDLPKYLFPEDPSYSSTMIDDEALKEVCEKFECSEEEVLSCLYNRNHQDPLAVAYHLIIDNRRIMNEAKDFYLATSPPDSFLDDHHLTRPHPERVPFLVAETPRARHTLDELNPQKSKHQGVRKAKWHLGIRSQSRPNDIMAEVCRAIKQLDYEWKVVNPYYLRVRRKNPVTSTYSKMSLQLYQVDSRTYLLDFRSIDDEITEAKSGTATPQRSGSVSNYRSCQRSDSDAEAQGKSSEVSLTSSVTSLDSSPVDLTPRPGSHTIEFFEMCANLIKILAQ
T1 sequence (P54619 whole entry partner): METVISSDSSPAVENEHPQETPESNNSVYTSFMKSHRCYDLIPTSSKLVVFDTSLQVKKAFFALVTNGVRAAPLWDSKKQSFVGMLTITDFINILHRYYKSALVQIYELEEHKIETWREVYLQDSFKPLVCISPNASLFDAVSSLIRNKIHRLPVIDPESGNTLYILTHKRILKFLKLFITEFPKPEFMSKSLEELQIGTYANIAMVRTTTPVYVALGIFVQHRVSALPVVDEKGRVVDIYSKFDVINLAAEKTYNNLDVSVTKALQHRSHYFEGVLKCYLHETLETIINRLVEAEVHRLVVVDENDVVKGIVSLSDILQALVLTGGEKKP
Description: The α1-KD was precipitated using anti-FLAG and endogenous AMPK complexes using anti-α1 antibody, and activity determined. Results (mean ± SD, n = 2) are expressed relative to activities in DMSO controls. (B) Western blots (n = 2) using the indicated antibodies; samples from experiment in (A). (C) DNAs encoding FLAG-tagged AMPK-α1 (WT or AT mutant) were expressed by transient transfection in HEK293 cells, the cells treated with increasing concentrations of SU6656 for 1 hr, AMPK complexes precipitated with anti-FLAG, and activity measured. Results (mean ± SD, n = 3) are expressed relative to the DMSO control. […] Results (mean ± SD, n = 3) are expressed relative to the DMSO control. **p < 0.01, ***p < 0.001, ****p < 0.0001, ^†††p < 0.001; ns, not significant.
To confirm that it acted by binding at the catalytic site, we expressed FLAG-tagged full-length AMPK-α1 either as the WT or the AT mutant.

[1] = target: α2 kinase domain (α2-KD, residues 1–310) (Homo sapiens, UniProt P54646); assay: biochemical
Chain of α2 kinase domain (α2-KD, residues 1–310) (P54646 1-310): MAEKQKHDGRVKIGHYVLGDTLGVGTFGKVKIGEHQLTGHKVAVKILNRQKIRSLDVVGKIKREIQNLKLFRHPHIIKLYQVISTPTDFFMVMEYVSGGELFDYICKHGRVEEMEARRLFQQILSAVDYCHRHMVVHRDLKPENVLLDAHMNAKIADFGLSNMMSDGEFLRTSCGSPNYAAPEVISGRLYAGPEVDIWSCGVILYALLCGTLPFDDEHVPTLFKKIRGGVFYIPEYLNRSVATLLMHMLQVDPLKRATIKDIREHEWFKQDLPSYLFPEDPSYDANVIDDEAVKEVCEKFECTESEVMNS

ACC = ACC phosphorylation in HEK293 cells (western blot); assay type: cell-based, human; conditions: 1 hr
Description: Figure 1 SU6656 Activates AMPK but Not AMPK-Related Kinases (A) HEK293 cells were incubated with the indicated concentrations of SU6656 or berberine (300 μM) for 1 hr; total AMPK activity was assayed in immunoprecipitates (top; mean ± SEM, n = 4), and phosphorylation of AMPK (Thr172), ACC (Ser80), and Raptor (Ser792) analyzed by western blotting (bottom; n = 2). (B) HEK293 cells were incubated with 100 μM SU6656 (1 hr), AMPK complexes containing α1, α2, β1, and β2 immunoprecipitated using isoform-specific antibodies, and AMPK activity measured (mean ± SEM, n = 4). (C) HeLa cells stably expressing LKB1 ([Fogarty et al., 2010]) were incubated with 100 μM SU6656 for 1 hr, AMPK or individual ARKs immunoprecipitated, and kinase assays carried out (antibodies that distinguish MARK2/MARK3 were not available, so they were assayed together). Results are means ± SEM (n = 2). In all panels, asterisks indicate significant differences from controls without SU6656. *p < 0.05, **p < 0.01, ****p < 0.0001.
(B) WT or RG cells were treated as in (A) and nucleotides extracted for analysis (mean ± SD, n = 3). […] (E) (See also Figure S2) Time courses of cellular oxygen uptake before and after addition of the indicated concentrations of sorafenib (SO, μM), SU6656 (100 μM) or phenformin (PHEN, 10 mM) (mean ± SEM, n = 4). (F) Effect of various concentrations of sorafenib or phenformin (10 mM) on activation (top, mean ± SEM, n = 3) or phosphorylation (bottom) of AMPK in cells expressing wild-type AMPK-γ2 (WT) or the R531G mutant AMPK-γ2 (RG). In all panels, asterisks show significant differences from DMSO controls (ns, not significant). […]
Cells were incubated for 60 min and AMPK activity measured; results in the top panel are means ± SEM (n = 8), with significant differences from the DMSO control indicated (ns, not significant). […]
SDS-PAGE was performed using precast Bis-Tris 4–12% gradient polyacrylamide gels in the MOPS buffer system (ThermoFisher Scientific). […] Protein concentrations were determined by Coomassie Blue binding with bovine serum albumin as standard ([Bradford, 1976]). […]

α2β2γ1 complex = target: T2, α2β2γ1 complex (Homo sapiens, UniProt P54619+P54646); assay: Inactivation of full-length α2β2γ1 complex by PP2Cα; assay type: biochemical; conditions: 5 mM ATP, AMP 2 mM, SU6656 up to 10 μM
T2 construct: bacterially expressed α2-KD or a full-length α2β2γ1 complex, both of which had been phosphorylated using CaMKK2; made in house; host or cells: bacteria
T2 sequence (P54646 whole entry): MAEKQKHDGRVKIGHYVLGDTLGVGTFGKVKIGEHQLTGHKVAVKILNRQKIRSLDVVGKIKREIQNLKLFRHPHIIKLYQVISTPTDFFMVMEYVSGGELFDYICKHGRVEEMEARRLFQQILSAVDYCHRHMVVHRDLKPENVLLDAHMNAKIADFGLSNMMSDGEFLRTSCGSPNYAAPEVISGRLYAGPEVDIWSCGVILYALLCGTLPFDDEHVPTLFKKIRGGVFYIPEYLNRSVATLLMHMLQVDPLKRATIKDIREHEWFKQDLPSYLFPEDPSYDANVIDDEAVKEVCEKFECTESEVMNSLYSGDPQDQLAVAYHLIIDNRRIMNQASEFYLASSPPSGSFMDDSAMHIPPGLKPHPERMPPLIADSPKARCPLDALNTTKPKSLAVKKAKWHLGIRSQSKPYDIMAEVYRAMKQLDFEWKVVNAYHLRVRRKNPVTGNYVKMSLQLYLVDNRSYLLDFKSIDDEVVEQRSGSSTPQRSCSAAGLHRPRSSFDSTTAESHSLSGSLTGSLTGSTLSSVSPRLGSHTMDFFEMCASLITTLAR
T2 sequence (O43741 whole entry partner): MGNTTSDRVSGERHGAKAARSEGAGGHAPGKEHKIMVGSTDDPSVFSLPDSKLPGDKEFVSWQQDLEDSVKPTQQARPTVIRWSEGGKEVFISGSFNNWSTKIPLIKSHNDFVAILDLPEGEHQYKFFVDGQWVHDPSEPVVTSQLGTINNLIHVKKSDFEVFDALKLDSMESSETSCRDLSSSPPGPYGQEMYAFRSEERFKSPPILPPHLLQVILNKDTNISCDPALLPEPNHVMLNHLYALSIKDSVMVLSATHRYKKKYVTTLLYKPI
T2 sequence (P54619 whole entry): as the sequence (P54619 whole entry partner) above

human AMPK-α2 (WT) = human AMPK-α2 (WT) (Homo sapiens, UniProt P54646); assay: AMPK activity of FLAG-tagged WT AMPK-α2 expressed in HEK293 cells; assay type: cell-based; conditions: SU6656 100 μM, phenformin 10 mM, A23187 10 μM, 1 hr
Chain of human AMPK-α2 (WT) (P54646 whole entry, the tested form may be a part): as the sequence (P54646 whole entry) above
Chain of human AMPK-α2 (WT) (P54619 whole entry partner, the tested form may be a part): as the sequence (P54619 whole entry partner) above
Description: Top: AMPK activity (mean ± SEM, n = 4); bottom: western blots showing phosphorylation of Thr172 on AMPK, and of ERK1/2, in cells treated with DMSO (control), SU6656 (100 μM), or PP2 (100 nM) (n = 2). (B) As (A), but in SYF cells. (C) HeLa cells were transfected with DNAs encoding GFP alone, or GFP fused to WT, Y261F/Y365F (FF), or Y36F/Y261F/Y365F (FFF) mutants of LKB1; cells were treated with increasing concentrations of SU6656 for 1 hr and AMPK activity determined (mean ± SEM, n = 4). See also Figure S1. (D) HEK293 cells were transfected with DNAs encoding FLAG-tagged AMPK-α2 with or without a Y436F mutation. Cells were incubated with DMSO (control), 100 μM SU6656, 10 mM phenformin, or 10 μM A23187 for 1 hr; AMPK complexes were immunoprecipitated using anti-FLAG antibody and assayed. The top panels show kinase activities (mean ± SD, n = 3); the bottom panels show blots from the same experiment (n = 2). In all panels, asterisks indicate significant differences from DMSO controls; in (D), there were no significant differences between the WT and Y463F mutant. **p < 0.01, ****p < 0.0001.

Structure (SMILES)	AMPK activity (AMPK-α1 AT mutant)	IC50 [1]	Ki [1]	ACC phosphorylation (ACC)	protection against inactivation by PP2Cα (α2β2γ1 complex)	AMPK activity in anti-FLAG immunoprecipitates (human AMPK-α2 (WT))
CN(C)S(=O)(=O)c1ccc2c(c1)/C(=C/c1cc3c([nH]1)CCCC3)C(=O)N2 [SU6656]	greatly reduced	220 ± 20 nM	170 nM	increased phosphorylation	did not protect against inactivation	all activated AMPK
CNC(=O)c1cc(Oc2ccc(NC(=O)Nc3ccc(Cl)c(C(F)(F)F)c3)cc2)ccn1 [sorafenib]				promoted Thr172 and ACC phosphorylation		
